Reference: patent US20240383973A1, “METHODS FOR TREATING CALCITONIN GENE-RELATED PEPTIDE (CGRP) - EXPRESSING CANCERS” (The Board of Regents of the University of Oklahoma, priority 2022, published 2024)
Entries after “also recorded” stand apart in the source; their conditions may differ.

Key:
[1] = system: tumor infiltrating T cells and B cells; experiment: Flow cytometric analysis of tumor-isolated immune cells after BIBN4096 treatment; format: in vivo, mice; conditions: day 63, flow cytometry; vs mock
Experimental: (§1) B6 mice were transplanted with Py230 tumor cells in the 4th mammary fat pad. Beginning on Day 28 post-transplant, mice were either injected with the CGRP inhibitor BIBN4096 in DMSO (white) or DMSO alone (black). 63 days post-transplant, tumors were isolated and tumor mass (FIG. 2A) determined. Tumors were digested and the ratio of activated CD44^hi CD43^+CD8 T cells to FoxP3^+ Tregs determined (FIG. 2B). PD-1 expression on tumor-isolated CD8+ T cells was measured by flow cytometry (FIG. 2C). Symbols represent individual mice, composite of two experiments. *p<0.05, **p<0.01.
B6 mice were transplanted with Py230 triple negative breast cancer cell line, tumors were measured 3×/week for 63 days. BIBN4096 or DMSO vehicle control (mock) were administered 1×/week starting on day 28 over a period of 4 weeks. Tumor was passed through a 70 µm cell strainer and single cell suspension was stained for flowcytometric analysis. FIG. 11A. BIBN4096 treated mice have a higher ratio of activated CD8^+ T cells to regulatory T cells (T reg) compared to the mock treated controls. FIG. 11B. […] FIG. 11C. […] FIG. 11D. Tumor infiltrating T cell subtypes at day 63 in BIBN4096 and mock treated controls. (n=15 group) Mann-Whitney Test, *p<0.05, **p<0.01, ****p<0.0001, n.s. not significant.

[2] = system: Py230 triple negative breast cancer cell line; experiment: Py230 tumor transplant in B6 mice, BIBN4096 vs DMSO: tumor growth and tumor mass; format: in vivo; conditions: vs DMSO mock
Experimental: as §1
B6 mice were transplanted with Py230 triple negative breast cancer cell line, tumors were measured 3×/week for 63 days. BIBN4096 or DMSO vehicle control (mock) were administered 1×/week starting on day 28 over a period of 4 weeks. Tumor masses were measured at day 63. FIG. 10A. Tumor growth curves of BIBN4096 treated B6 mice and mock treated controls. FIG. 10B. Tumor masses of BIBN4096 treated mice and mock treated controls. (n=10/group), Mann-Whitney Test, *p<0.05.

[3] = system: Py230 murine mammary tumors; experiment: Anti-CGRP/anti-PD-1 combination treatment effect on tumor volume and tumor regression; format: in vivo; conditions: treatment day 28-56, followed to day 70; 10 mice per group
From the text: The anti-PD-1 compound is a rat IgG2a anti-mouse PD-1 antibody, clone RMP1-14, obtained from Bio X Cell. The CGRP inhibitor is olcegepant. The isotype control is a rat IgG2a, clone 2A3, raised against human CD25, obtained from Bio X Cell.
Mice were transplanted with Py230 murine mammary tumors in the mammary fat pad. 28 days after tumor implantation the drug treatments were initiated. Treatments were: (1) Mock—isotype control and vehicle control, (2) CGRP inhibitor+isotype control, (3) anti-PD-1+vehicle control, and (4) Combination: CGRP inhibitor+anti-PD-1. Treatments were terminated 56 days after transplantation. The anti-PD-1 compound was a rat IgG2a anti-mouse PD-1 antibody, clone RMP1-14, obtained from Bio X Cell, the CGRP inhibitor was olcegepant, and the isotype control was a rat IgG2a, clone 2A3, raised against human CD25, obtained from Bio X Cell. Tumor volume, as determined by caliper measurement, was measured every other day until day 70 post-transplant. Average tumor mass of 10 individuals across two experiments is depicted (FIG. 4). The results (FIG. 5) also indicated the numbers of mice in the 4 treatment groups that experienced either tumor progression (i.e., continual growth of tumor), tumor stagnation (cessation of growth for at least 3 weeks), or tumor regression (tumor no longer palpable) in each cohort. […]

## NCCCC[C@H](NC(=O)[C@@H](Cc1cc(Br)c(O)c(Br)c1)NC(=O)N1CCC(N2Cc3ccccc3NC2=O)CC1)C(=O)N1CCN(c2ccncc2)CC1 [BIBN4096, Olcegepant]
[1]
  PD-1 expression on activated CD8+ T cells from tumor: increased expression
  ratio of activated CD8+ T cells to regulatory T cells (Treg) in tumor: higher ratio
  tumor infiltrating B cells: increased infiltration; also recorded: enhances CD8+ T cell activation and tumor infiltrating B cells
[2]; B6 mice, Py230, BIBN4096 1x/week from day 28 for 4 weeks, tumors measured for 63 days
  tumor growth: inhibits tumor growth; also recorded: stops growth of triple negative breast cancer
[2]; day 63 post-transplant
  tumor mass: decreases tumor mass
[3]
  tumor progression (continual growth of tumor), share of tumors: most tumors continued to progress
  tumor stagnation (cessation of growth for at least 3 weeks), share of tumors: 30%
